Converted amounts (≈) assume the structure as drawn.
Legend:
Assay in all cases: in vitro MIC, two-fold serial dilution in brain-heart infusion medium
Type in all cases: cell-based
[1] = tested on: Staphylococcus aureus 01AA005
Description: (§1) The in vitro activity of the herein-described compounds renders them useful for topical application in the form of ointments, creams and the like, or for sterilization purposes, e.g., sickroom utensils. For topical application, the dosage level is on the order of from about 10 to 200 mg./kg./day.
(§2) The in vitro (MIC) values for 6-(phenylacetamido)-2,2-dimethyl-3-(pyrimidin-4,6-dione-2-yl)penam against several organisms is presented below: […]

[2] = tested on: Streptococcus pyogenes 02C203
Description: as §1, §2

[3] = tested on: Staphylococcus aureus 01A099
Description: as §1, §2

[4] = tested on: Pasteurella multocida 59A001
Description: as §1, §2

SMILES: CC1(C)S[C@@H]2[C@H](NC(=O)Cc3ccccc3)C(=O)N2[C@H]1C1=NC(=O)CC(=O)N1 [6-Phenylacetamido-2,2-dimethyl-3-(pyrimidin-4,6-dione-2yl)penam]
- MIC [1]: 50 µg/mL (≈ 125 µM)
- MIC [2]: 3.12 µg/mL (≈ 7.79 µM)
- MIC [3]: 50 µg/mL (≈ 125 µM)
- MIC [4]: 50 µg/mL (≈ 125 µM)
